Measured values from the supplement of paper PMC10331698.
± gives the standard deviation of the averaged measurements.

What was measured:
Assay in all cases: level (log10 ratio to DMSO vehicle control); higher = higher biomarker level / cell amount than vehicle control
[1] = compound: C=C(C)C(=O)OCCC(F)(F)C(F)(F)C(F)(F)C(F)(F)C(F)(F)C(F)(F)F [6:2 Fluorotelomer methacrylate]; details: in DMSO
Description: (§1)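 BioMAP Diversity Plus panel of 12 human primary cell co-culture systems (3C, 4H, LPS, SAg, BT, BF4T, BE3C, CASM3C, HDF3CGF, KF3CT, MyoF, Mphg). Compounds were added 1 h before stimulation and left for 24 h (MyoF 48 h; BT 72 h for soluble read-outs or 6 d for IgG). Biomarkers were read by ELISA, cytotoxicity by SRB, PBMC viability and proliferation by Alamar Blue. Each well value was divided by the mean of 8 DMSO control wells on the same plate and log10 transformed; duplicate blinded samples were tested at 4 concentrations.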

[2] = compound: C=CC(=O)OCC(F)(F)C(F)(F)C(F)(F)COC(=O)C=C [1H,1H,5H,5H-Perfluoro-1,5-pentanediol diacrylate]; details: 6700 nM; in DMSO
Description: as §1

[3] = compound: COC(=O)C(F)(F)C(F)(F)OC(F)(C(F)(F)F)C(F)(F)OC(F)=C(F)F [Methyl perfluoro(3-(1-ethenyloxypropan-2-yloxy)propanoate)]; details: in DMSO
Description: as §1

[4] = compound: FC(F)(F)C(F)(F)C(F)(F)C(F)(F)C(F)(F)C(F)(F)C(F)(F)I [1-Iodopentadecafluoroheptane]; details: in DMSO
Description: as §1

[5] = compound: FC(F)(F)C(F)(F)C(F)(F)C(F)(F)C(F)(F)C(F)(F)CC1CO1 [3-(Perfluorohexyl)-1,2-epoxypropane]; details: in DMSO
Description: as §1

[6] = compound: FC(F)(F)C(F)(F)C(F)(F)CC1CO1 [1H,1H-Heptafluorobutyl epoxide]; details: in DMSO
Description: as §1

Heptafluorobutyl iodide = compound: FC(F)(F)C(F)(F)C(F)(F)CI [Heptafluorobutyl iodide]; details: in DMSO
Description: as §1

[7] = compound: FC(F)(F)C(F)(F)CNCC(F)(F)C(F)(F)F [Bis(1H,1H-perfluoropropyl)amine]; details: in DMSO
Description: as §1

Octafluoroadipamide = compound: NC(=O)C(F)(F)C(F)(F)C(F)(F)C(F)(F)C(N)=O [Octafluoroadipamide]; details: in DMSO
Description: as §1

Nonafluoropentanamide = compound: NC(=O)C(F)(F)C(F)(F)C(F)(F)C(F)(F)F [Nonafluoropentanamide]; details: in DMSO
Description: as §1

[8] = compound: NC(=O)C(F)(F)C(F)(F)C(F)(F)C(F)F; details: in DMSO
Description: as §1

[9] = compound: NS(=O)(=O)C(F)(F)C(F)(F)C(F)(F)C(F)(F)C(F)(F)C(F)(F)F [Perfluorohexanesulfonamide]; details: in DMSO
Description: as §1

[10] = compound: O=C(O)C(F)(F)C(F)(F)C(F)(F)C(F)(F)C(F)(F)C(F)(F)C(F)(F)C(F)(F)C(F)(F)C(F)F [11-H-Perfluoroundecanoic acid]; details: in DMSO
Description: as §1

[11] = compound: O=C(O)C=CC(F)(C(F)(F)F)C(F)(F)F [3-(Perfluoroisopropyl)-2-propenoic acid]; details: in DMSO
Description: as §1

[12] = compound: O=S(=O)(Cl)C(F)(F)C(F)(F)C(F)(F)C(F)(F)C(F)(F)C(F)(F)C(F)(F)C(F)(F)F [Perfluoro-1-octanesulfonyl chloride]; details: in DMSO
Description: as §1

[13] = compound: O=S(=O)(F)C(F)(F)C(F)(F)C(F)(F)C(F)(F)C(F)(F)C(F)(F)C(F)(F)C(F)(F)F [Perfluorooctanesulfonyl fluoride]; details: in DMSO
Description: as §1

[14] = compound: O=S(=O)(O)C(F)(F)C(F)(F)C(F)(F)C(F)(F)C(F)(F)C(F)(F)C(F)(F)C(F)(F)C(F)(F)C(F)(F)F [Sodium perfluorodecanesulfonate]; details: in DMSO
Description: as §1

[15] = compound: O=S(=O)(O)CCC(F)(F)C(F)(F)C(F)(F)C(F)(F)C(F)(F)C(F)(F)F [6:2 Fluorotelomer sulfonic acid]; details: in DMSO
Description: as §1

Hexafluoroamylene glycol = compound: OCC(F)(F)C(F)(F)C(F)(F)CO [Hexafluoroamylene glycol]; details: in DMSO
Description: as §1

## BF4T:CD90
[1]; 6700 nM
  level (log10): -0.004 ± 0.0057
[1]; 20000 nM
  level (log10): -0.007 ± 0.0057
[1]; 60000 nM
  level (log10): -0.0065 ± 0.0021
[2]
  level (log10): -0.0195 ± 0.018
[3]; 6700 nM
  level (log10): -0.004 ± 0.017
[3]; 20000 nM
  level (log10): -0.0045 ± 0.0078
[4]; 6700 nM
  level (log10): 0.001 ± 0.016
[4]; 20000 nM
  level (log10): -0.0025 ± 0.0021
[5]; 6700 nM
  level (log10): -0.005 ± 0.0042
[5]; 20000 nM
  level (log10): -0.0055 ± 0.0092
[5]; 60000 nM
  level (log10): 0.0085 ± 0.028
[6]; 6700 nM
  level (log10): -0.026 ± 0.014
[6]; 20000 nM
  level (log10): -0.0175 ± 0.0092
[6]; 60000 nM
  level (log10): -0.0125 ± 0.0078
Heptafluorobutyl iodide; 6700 nM
  level (log10): 0.003 ± 0.018
Heptafluorobutyl iodide; 20000 nM
  level (log10): -0.009 ± 0.0028
Heptafluorobutyl iodide; 60000 nM
  level (log10): 0.001 ± 0.017
[7]; 6700 nM
  level (log10): -0.01 ± 0.0085
[7]; 20000 nM
  level (log10): -0.004 ± 0.0071
[7]; 60000 nM
  level (log10): 0.011 ± 0.018
Octafluoroadipamide; 6700 nM
  level (log10): -0.0155 ± 0.0078
Octafluoroadipamide; 20000 nM
  level (log10): -0.0145 ± 0.0021
Octafluoroadipamide; 60000 nM
  level (log10): -0.0125 ± 0.021
Nonafluoropentanamide; 6700 nM
  level (log10): -0.0145 ± 0.015
Nonafluoropentanamide; 20000 nM
  level (log10): -0.0075 ± 0.0021
Nonafluoropentanamide; 60000 nM
  level (log10): -0.013 ± 0.0042
[8]; 6700 nM
  level (log10): -0.002 ± 0.0085
[8]; 20000 nM
  level (log10): -0.0125 ± 0.0092
[8]; 60000 nM
  level (log10): 0.001 ± 0.0028
[9]; 6700 nM
  level (log10): -0.0055 ± 0.00071
[9]; 20000 nM
  level (log10): -0.0085 ± 0.0078
[9]; 60000 nM
  level (log10): -0.035 ± 0.0099
[10]; 6700 nM
  level (log10): -0.0485 ± 0.028
[10]; 20000 nM
  level (log10): -0.0995 ± 0.029
[11]; 6700 nM
  level (log10): -0.0005 ± 0.013
[11]; 20000 nM
  level (log10): -0.0105 ± 0.0035
[11]; 60000 nM
  level (log10): 0.018 ± 0.0028
[12]; 6700 nM
  level (log10): 0.0005 ± 0.00071
[12]; 20000 nM
  level (log10): -0.019
[12]; 60000 nM
  level (log10): -0.028 ± 0.038
[13]; 6700 nM
  level (log10): -0.0065 ± 0.0078
[13]; 20000 nM
  level (log10): -0.014 ± 0.0057
[13]; 60000 nM
  level (log10): 0.0065 ± 0.0021
[14]; 1500 nM
  level (log10): -0.0085 ± 0.012
[14]; 4400 nM
  level (log10): -0.0055 ± 0.005
[14]; 13000 nM
  level (log10): -0.0065 ± 0.0035
[14]; 40000 nM
  level (log10): 0.002 ± 0.0057
[15]; 6700 nM
  level (log10): -0.029 ± 0.017
[15]; 20000 nM
  level (log10): -0.028 ± 0.0085
[15]; 60000 nM
  level (log10): -0.031 ± 0.0042
Hexafluoroamylene glycol; 6700 nM
  level (log10): -0.012 ± 0.0028
Hexafluoroamylene glycol; 20000 nM
  level (log10): -0.017
Hexafluoroamylene glycol; 60000 nM
  level (log10): -0.004 ± 0.011
